Laboratory results taken from ChEMBL document CHEMBL5303573, “Mapping human microbiome drug metabolism by gut bacteria and their genes” (Nature, 2019).

Legend:
[1] = The drug is tested on Bacteroides sp. WH2 strain: WH2 for biotransformation. The drug concentrations were measured before and after a 12-h incubation by liquid-chromatography-coupled mass spectrometry (LC–MS); conditions: bacteroides sp. wh2, 12 h, 2 µM
[2] = The drug is tested on Eubacterium ventriosum strain: ATCC27560 for biotransformation. The drug concentrations were measured before and after a 12-h incubation by liquid-chromatography-coupled mass spectrometry (LC–MS); assay type: ADME; set-up: dose 2 uM, timepoint 0 vs 12 hours; conditions: 2 µM
[3] = bacteroides fragilis, 12 h, 2 µM
Description: The drug is tested on Bacteroides fragilis strain: NCTC 9343 for biotransformation. The drug concentrations were measured before and after a 12-h incubation by liquid-chromatography-coupled mass spectrometry (LC–MS)

[4] = akkermansia muciniphila, 12 h, 2 µM
Description: The drug is tested on Akkermansia muciniphila strain: ATCC BAA-835 for biotransformation. The drug concentrations were measured before and after a 12-h incubation by liquid-chromatography-coupled mass spectrometry (LC–MS)

[5] = The drug is tested on Alistipes indistinctus strain: DSM22520 for biotransformation. The drug concentrations were measured before and after a 12-h incubation by liquid-chromatography-coupled mass spectrometry (LC–MS); conditions: 2 µM
[6] = The drug is tested on Odoribacter splanchnicus strain: fecal isolate for biotransformation. The drug concentrations were measured before and after a 12-h incubation by liquid-chromatography-coupled mass spectrometry (LC–MS); conditions: 2 µM
[7] = The drug is tested on Ruminococcus lactaris strain: ATCC29176 for biotransformation. The drug concentrations were measured before and after a 12-h incubation by liquid-chromatography-coupled mass spectrometry (LC–MS); conditions: 2 µM

| SMILES | Bacterial Biotransformation [1] | Bacterial Biotransformation [2] | Bacterial Biotransformation [3] | Bacterial Biotransformation [4] | Bacterial Biotransformation [5] | Bacterial Biotransformation [6] | Bacterial Biotransformation [7] |
| --- | --- | --- | --- | --- | --- | --- | --- |
| CC(C)NCC(O)COc1ccc(CC(N)=O)cc1 (stereo not given) [ATENOLOL] | Compound NOT metabolized | Compound NOT metabolized | Compound NOT metabolized | Compound NOT metabolized | – | – | – |
| Clc1ccc(Cn2c(CN3CCCC3)nc3ccccc32)cc1 [CLEMIZOLE] | Compound NOT metabolized | Compound NOT metabolized | – | – | Compound NOT metabolized | Compound NOT metabolized | Compound NOT metabolized |
| COc1ccc2[nH]c([S+]([O-])Cc3ncc(C)c(OC)c3C)nc2n1 (stereo not given) [TENATOPRAZOLE] | Compound metabolized | Compound metabolized | Compound metabolized | Compound metabolized | Compound metabolized | Compound metabolized | – |
| NS(=O)(=O)c1cc2c(cc1Cl)N=C(CSCc1ccccc1)NS2(=O)=O [BENZTHIAZIDE] | Compound NOT metabolized | – | – | Compound NOT metabolized | Compound NOT metabolized | Compound NOT metabolized | – |
| CCC1(c2ccc(N)cc2)CCC(=O)NC1=O (stereo not given) [AMINOGLUTETHIMIDE] | Compound NOT metabolized | Compound NOT metabolized | Compound NOT metabolized | Compound NOT metabolized | – | Compound NOT metabolized | Compound NOT metabolized |
| OC(CCN1CCCCC1)(c1ccccc1)C1CC2C=CC1C2 (stereo not given) [BIPERIDEN] | Compound NOT metabolized | Compound NOT metabolized | – | Compound NOT metabolized | Compound NOT metabolized | Compound NOT metabolized | Compound NOT metabolized |
| CNC(=C[N+](=O)[O-])NCCSCc1csc(CN(C)C)n1 [NIZATIDINE] | – | Compound metabolized | Compound metabolized | Compound NOT metabolized | Compound metabolized | – | Compound metabolized |
| CC#C[C@]1(O)CC[C@H]2[C@@H]3CCC4=CC(=O)CCC4=C3[C@@H](c3ccc(N(C)C)cc3)C[C@@]21C [MIFEPRISTONE] | Compound NOT metabolized | Compound NOT metabolized | Compound metabolized | Compound NOT metabolized | – | Compound NOT metabolized | Compound NOT metabolized |
| Cc1nc2n(c(=O)c1CCN1CCC(c3noc4cc(F)ccc34)CC1)CCCC2O (stereo not given) [PALIPERIDONE] | Compound NOT metabolized | – | Compound metabolized | Compound metabolized | Compound metabolized | Compound metabolized | Compound metabolized |
| Br.CN(C)CCCC1(c2ccc(F)cc2)OCc2cc(C#N)ccc21 (stereo not given) [CITALOPRAM HYDROBROMIDE] | Compound NOT metabolized | Compound NOT metabolized | Compound NOT metabolized | Compound NOT metabolized | Compound NOT metabolized | – | Compound NOT metabolized |
| CN(C)CCc1c[nH]c2ccc(CS(=O)(=O)N3CCCC3)cc12 [ALMOTRIPTAN] | Compound NOT metabolized | Compound NOT metabolized | Compound NOT metabolized | – | – | Compound NOT metabolized | Compound NOT metabolized |
| CCOC(=O)[C@H](CCc1ccccc1)N[C@@H](C)C(=O)N1Cc2ccccc2C[C@H]1C(=O)O | Compound NOT metabolized | – | Compound metabolized | – | – | Compound metabolized | Compound NOT metabolized |
| C[N+]12CCC(CC1)C(OC(=O)C(O)(c1ccccc1)c1ccccc1)C2.[Br-] (stereo not given) [CLIDINIUM BROMIDE] | Compound NOT metabolized | Compound NOT metabolized | Compound NOT metabolized | Compound NOT metabolized | – | – | Compound NOT metabolized |
| CNC(=C[N+](=O)[O-])NCCSCc1ccc(CN(C)C)o1 [RANITIDINE] | – | Compound metabolized | Compound metabolized | Compound metabolized | – | Compound metabolized | Compound metabolized |
| CCCC1O[C@@H]2C[C@H]3[C@@H]4CCC5=CC(=O)C=C[C@]5(C)[C@H]4[C@@H](O)C[C@]3(C)[C@]2(C(=O)CO)O1 (stereo not given in full) [BUDESONIDE] | Compound NOT metabolized | Compound NOT metabolized | – | Compound NOT metabolized | Compound NOT metabolized | Compound metabolized | Compound NOT metabolized |
| CCCC(C)(COC(N)=O)COC(=O)NC(C)C (stereo not given) [CARISOPRODOL] | Compound NOT metabolized | Compound metabolized | Compound metabolized | Compound NOT metabolized | Compound NOT metabolized | – | – |
| O=P1(N(CCCl)CCCl)NCCCO1 (stereo not given) [CYCLOPHOSPHAMIDE ANHYDROUS] | Compound NOT metabolized | – | Compound NOT metabolized | Compound NOT metabolized | Compound metabolized | Compound NOT metabolized | – |
| CN(C)C(=O)Oc1cc(OC(=O)N(C)C)cc(C(O)CNC(C)(C)C)c1 (stereo not given) [BAMBUTEROL] | Compound NOT metabolized | Compound NOT metabolized | Compound NOT metabolized | Compound NOT metabolized | – | Compound NOT metabolized | Compound NOT metabolized |
| CC(C)NCC(O)COc1ccc(COCCOC(C)C)cc1.CC(C)NCC(O)COc1ccc(COCCOC(C)C)cc1.O=C(O)/C=C/C(=O)O (stereo not given) [BISOPROLOL FUMARATE] | Compound NOT metabolized | Compound NOT metabolized | Compound NOT metabolized | – | Compound NOT metabolized | Compound NOT metabolized | Compound NOT metabolized |
| CN(C)CCOC(c1ccc(Cl)cc1)c1ccccn1.O=C(O)/C=C\C(=O)O (stereo not given) [CARBINOXAMINE MALEATE] | Compound NOT metabolized | Compound NOT metabolized | Compound NOT metabolized | Compound NOT metabolized | – | Compound NOT metabolized | Compound NOT metabolized |
| CCN(CC)CCNC(=O)c1ccc(NC(C)=O)cc1 [ACECAINIDE] | Compound NOT metabolized | Compound NOT metabolized | – | Compound NOT metabolized | Compound NOT metabolized | – | Compound NOT metabolized |
| O=C1CN2Cc3c(ccc(Cl)c3Cl)N=C2N1 [ANAGRELIDE] | Compound NOT metabolized | Compound NOT metabolized | Compound NOT metabolized | – | Compound NOT metabolized | Compound metabolized | Compound NOT metabolized |
| CN1CCC[C@@H]1CCO[C@](C)(c1ccccc1)c1ccc(Cl)cc1.O=C(O)/C=C/C(=O)O [CLEMASTINE FUMARATE] | – | Compound NOT metabolized | Compound metabolized | – | Compound NOT metabolized | Compound metabolized | Compound NOT metabolized |
| C=CCc1ccccc1OCC(O)CNC(C)C (stereo not given) [ALPRENOLOL] | Compound NOT metabolized | Compound NOT metabolized | Compound NOT metabolized | – | Compound NOT metabolized | Compound NOT metabolized | Compound NOT metabolized |
| CCCc1nc(C(C)(C)O)c(C(=O)OCc2oc(=O)oc2C)n1Cc1ccc(-c2ccccc2-c2nnn[nH]2)cc1 [OLMESARTAN MEDOXOMIL] | – | Compound metabolized | Compound metabolized | Compound metabolized | – | Compound metabolized | Compound metabolized |
| CN1C(=O)CCS(=O)(=O)C1c1ccc(Cl)cc1 (stereo not given) [CHLORMEZANONE] | – | Compound NOT metabolized | Compound NOT metabolized | Compound NOT metabolized | Compound metabolized | Compound NOT metabolized | – |
| CN1CCC(=C2c3ccccc3CCc3cccnc32)CC1.O=C(O)/C=C\C(=O)O.O=C(O)/C=C\C(=O)O [AZATADINE MALEATE] | Compound NOT metabolized | Compound NOT metabolized | Compound NOT metabolized | Compound NOT metabolized | Compound NOT metabolized | – | Compound NOT metabolized |
| NC12CC3CC(CC(C3)C1)C2 [AMANTADINE] | Compound NOT metabolized | Compound NOT metabolized | – | Compound NOT metabolized | – | Compound NOT metabolized | Compound NOT metabolized |
